Reference: patent US20050228180A1, “Alpha, omega-dicarboximide derivatives as useful uro-selective a1a adrenoceptor blockers” (priority 2002, published 2005)
Where a name gives a salt, the structure may show the parent alone.

Legend:
α1A adrenoceptor = target: T1, α1A adrenoceptor (Rattus norvegicus, UniProt P43140); test: Radioligand binding, [3H] prazosin displacement, rat submaxillary membranes
T1 construct: from tissue; host or cells: rat submaxillary gland membranes
T1 sequence (P43140 1-466): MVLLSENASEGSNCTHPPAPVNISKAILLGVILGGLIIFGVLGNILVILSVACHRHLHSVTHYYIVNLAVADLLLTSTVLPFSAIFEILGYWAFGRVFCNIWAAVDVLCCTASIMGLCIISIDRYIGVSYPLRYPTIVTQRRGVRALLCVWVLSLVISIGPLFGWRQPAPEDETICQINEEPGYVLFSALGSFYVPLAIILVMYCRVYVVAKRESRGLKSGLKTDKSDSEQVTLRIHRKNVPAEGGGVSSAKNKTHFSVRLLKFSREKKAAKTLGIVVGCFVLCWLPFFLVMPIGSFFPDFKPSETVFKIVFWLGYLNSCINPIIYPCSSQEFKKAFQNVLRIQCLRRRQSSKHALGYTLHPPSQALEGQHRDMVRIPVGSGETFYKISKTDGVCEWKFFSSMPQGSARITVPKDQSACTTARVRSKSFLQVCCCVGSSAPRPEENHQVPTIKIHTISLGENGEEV
In short: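 Rat membranes (submaxillary for α1A, liver for α1B; 150-250 μg protein) incubated with [3H]prazosin and compound in Tris 50 mM/EDTA 5 mM pH 7.4, 1 h at 24-25° C. Nonspecific binding with 300 nM prazosin; filtration, counting; Ki via Cheng–Prusoff.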

[1] = target: T2, α1A adrenoceptor (prostate) (Rattus norvegicus, UniProt P43140); test: In vitro functional assay, isolated prostate, phenylepinephrine contraction; format: cell-based
T2 construct: from tissue; host or cells: isolated prostate tissue
T2 sequence (P43140 1-466): T1 sequence (P43140 1-466)
In short: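 Rat aorta, spleen and prostate strips from urethane-anaesthetised male Wistar rats in Krebs-Henseleit at 37 °C (95% O2/5% CO2), 2 g or 1 g resting tension, 2 h equilibration. Norepinephrine (aorta) or phenylephrine (spleen, prostate) contraction curves run without and with compound at […]; antagonist affinity given as pKB.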

conscious beagle dogs = test: In vivo uroselectivity study: phenylephrine response on MAP and IUP; set-up: species or system dog; conditions: 30 μg/kg p.o.
Text: In order to assess the uroselectivity in vivo, the effects of these compounds were studied on mean arterial pressure (MAP) and intraurethral pressure (UP) in conscious beagle dogs as per the method of Brune et al. (Pharmacol., 1996, 53:356). Briefly, male dogs were instrumented for chronic continuous measurement of arterial blood pressure by implanting a telemetry transmitter (TL11M2-D70-PCT, Data Sci. International, St. Paul, Minn. USA) into the femoral artery, two weeks prior to the study. During the recovery period, the animal was acclimatized to stay in the sling restraint. On the day of testing, overnight fasted animal was placed in the sling restraint. A Swan-Ganz. Balloon tipped catheter was introduced into the urethra at the level of prostate and the balloon was inflated (Brune. et. al. 1996). After recording the base line readings, effect of 16 μg/kg, phenylephrine (i.v.) on MAP and IUP was recorded. The response of phenylephrine to MAP and […] were recorded at 0.5, 1, 2, 3, 4, 6, 9 and 24 hours after the oral administration of vehicle or the test drug. The changes in MAP were recorded on line using Dataquest Software (Data Sci. International, St. Paul, Minn. USA). The change in phenylephrine response on […] administration after the test drug administration was calculated as percent change of that of control values. Area under curve was calculated, and the ratio of the values for MAP and IUP was used for calculating the uroselectivity (Table III).

[2] = percent change of phenylephrine response over 24 hours

- Ki (α1A adrenoceptor; [3H] prazosin displacement, rat submaxillary membranes, read-out: Affinity (Ki) α1A (Rat Submaxillary)): 0.98 nM
- α1B/α1A (α1A adrenoceptor; ratio of binding affinities, rat liver / rat submaxillary): 130
- Selectivity α1B/α1A ([1]; functional, from pKB): 5
- Selectivity α1D/α1A ([1]; functional, from pKB): 5.6
- Kb ([1]; rat prostate, phenylepinephrine, read-out: α Adrenoceptor Subtype (pKB) α1A (converted)): 1.48 nM
SMILES: CC(C)Oc1ccccc1N1CCN(CCCN2C(=O)C3CC(O)C(O)CC3C2=O)CC1 (centres unmarked) [Compound No. 23, 2-[3-{4-(2-Isopropoxyphenyl)piperazin-1-yl}propyl]-5,6-dihydroxy-3a,4,5,6,7,7a, hexahydro-1H-isoindole-1,3(2H)-dione-hydrochloride]
- Uroselectivity Ratio IUP/MAP (conscious beagle dogs): 5.5
- Area Under Curve IUP (conscious beagle dogs; [2]): 524
- Area Under Curve MAP (conscious beagle dogs; [2]): 95
